This passage reports T/C results from PubChem BioAssay AID248 (DTP/NCI, 2004).

The assay has as its system L1210 leukemia ip in BDF1 mice, survival T/C. In words: NCI In Vivo Anticancer Drug Screen. Data for tumor model L1210 Leukemia (intraperitoneal) in B6D2F1 (BDF1) mice. The conditions noted are these: endpoint: mean survival time, higher = longer survival. In a few lines:
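Value reflects the ratio of survival in compound-treated mice to survival in vehicle-treated controls, with both groups carrying the same transplanted tumor.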

The mark [1] stands for this setting: dose: 100.0 mg/kg/injection, schedule: Q04DX002 (ip), vehicle: saline with Tween-80.
Where [2] appears, read: dose: 200.0 mg/kg/injection, schedule: Q04DX002 (ip), vehicle: saline with Tween-80.
Setting [3] is: dose: 100.0 mg/kg/injection, schedule: Q04DX003 (ip), vehicle: Klucel (hydroxypropylcellulose) (HPC).
Setting [4] is: dose: 200.0 mg/kg/injection, schedule: Q04DX003 (ip), vehicle: Klucel (hydroxypropylcellulose) (HPC).
The mark [5] stands for this setting: dose: 400.0 mg/kg/injection, schedule: Q04DX003 (ip), vehicle: Klucel (hydroxypropylcellulose) (HPC).
Where [6] appears, read: dose: 100.0 mg/kg/injection, schedule: Q01DX001 (ip), vehicle: saline.
Setting [7] is: dose: 200.0 mg/kg/injection, schedule: Q01DX001 (ip), vehicle: saline.
The mark [8] stands for this setting: dose: 100.0 mg/kg/injection, schedule: Q01DX009 (ip), vehicle: Klucel (hydroxypropylcellulose) (HPC).
The mark [9] stands for this setting: dose: 200.0 mg/kg/injection, schedule: Q01DX009 (ip), vehicle: Klucel (hydroxypropylcellulose) (HPC).
[10] abbreviates: dose: 400.0 mg/kg/injection, schedule: Q01DX009 (ip), vehicle: Klucel (hydroxypropylcellulose) (HPC).
[11] abbreviates: dose: 100.0 mg/kg/injection, schedule: Q04DX003 (ip), vehicle: saline with Tween-80.
Setting [12] is: dose: 200.0 mg/kg/injection, schedule: Q04DX003 (ip), vehicle: saline with Tween-80.

Toxic doses and inconclusive results are not listed.

Consider `CCCCC(=O)N(CC)C(=NCC)c1ccc(NC(=O)c2ccc(C(=O)Nc3ccc(C(=NCC)N(CC)C(=O)CCCC)cc3)cc2)cc1`, for which the T/C was 90 % of control (dose: 25.0 mg/kg/injection, schedule: Q01DX015 (ip), vehicle: methylcellulose (MC)); 90 % of control (dose: 50.0 mg/kg/injection, schedule: Q01DX015 (ip), vehicle: methylcellulose (MC)); 96 % of control (dose: 100.0 mg/kg/injection, schedule: Q01DX015 (ip), vehicle: methylcellulose (MC)); 94 % of control (dose: 200.0 mg/kg/injection, schedule: Q01DX015 (ip), vehicle: methylcellulose (MC)).
Regarding `O=C(O)/C=C/Sc1ccc(Cl)cc1`, the T/C (dose: 50.0 mg/kg/injection, schedule: Q01DX009 (ip), vehicle: saline with Tween-80) is 94 % of control; the T/C (dose: 100.0 mg/kg/injection, schedule: Q01DX009 (ip), vehicle: saline with Tween-80) was 94 % of control; the T/C under setting [1] is 95 % of control; the T/C (dose: 200.0 mg/kg/injection, schedule: Q01DX009 (ip), vehicle: saline with Tween-80) was 94 % of control; the T/C under setting [2] was 92 % of control.
In the case of `CCNC(C)(C)C(SSSC(c1ccc(Br)cc1)C(C)(C)NCC)c1ccc(Br)cc1` (stereo unspecified), the T/C is 96 % of control (dose: 25.0 mg/kg/injection, schedule: Q01DX009 (ip), vehicle: water); 90 % of control (dose: 50.0 mg/kg/injection, schedule: Q01DX009 (ip), vehicle: water); 88 % of control (dose: 100.0 mg/kg/injection, schedule: Q01DX009 (ip), vehicle: water).
On to `O=C(C#CC(=O)[O][Sn]([c]1ccccc1)([c]1ccccc1)[c]1ccccc1)[O][Sn]([c]1ccccc1)([c]1ccccc1)[c]1ccccc1`, for which the T/C (dose: 6.25 mg/kg/injection, schedule: Q01DX001 (ip), vehicle: saline) is 90 % of control; the T/C (dose: 12.5 mg/kg/injection, schedule: Q01DX001 (ip), vehicle: saline) is 95 % of control; the T/C (dose: 25.0 mg/kg/injection, schedule: Q01DX001 (ip), vehicle: saline) is 100 % of control; the T/C (dose: 35.0 mg/kg/injection, schedule: Q01DX001 (ip), vehicle: Klucel (hydroxypropylcellulose) (HPC)) is 91 % of control.
Turning to `O=[N+]([O-])c1ccc(Oc2cccc(C(F)(F)F)c2)cc1`, the T/C reads like this: under setting [3], 95 % of control; under setting [4], 96 % of control; under setting [5], 96 % of control.
As for `COC(=O)/C=C(\C)Nc1ccc(Cc2ccc(N/C(C)=C/C(=O)OC)cc2)cc1`, the T/C under setting [6] is 95 % of control and the T/C under setting [7] is 86 % of control.
Consider `C#CCOC(=O)NCC`, for which the T/C (dose: 100.0 mg/kg/injection, schedule: Q04DX003 (ip), vehicle: saline) is 101 % of control; the T/C (dose: 200.0 mg/kg/injection, schedule: Q04DX003 (ip), vehicle: saline) was 102 % of control; the T/C (dose: 400.0 mg/kg/injection, schedule: Q04DX003 (ip), vehicle: saline) is 96 % of control.
With `CC12OC(c3ccccc3)(C3=C1C1CCC(C1)C3(C)C)c1ccccc12` (stereo unspecified), the T/C was 89 % of control (dose: 50.0 mg/kg/injection, schedule: Q01DX009 (ip), vehicle: saline); 103 % of control under setting [6]; 100 % of control under setting [7]; 112 % of control (dose: 400.0 mg/kg/injection, schedule: Q01DX001 (ip), vehicle: saline).
For `CCCCNC(=O)Nc1c(C)cccc1Cl`, the T/C under setting [8] was 101 % of control; the T/C under setting [3] is 101 % of control; the T/C under setting [9] was 90 % of control; the T/C under setting [4] is 97 % of control; the T/C under setting [10] was 87 % of control; the T/C under setting [5] was 88 % of control.
Take `Cc1ccc(O)c(C(c2cc(S(=O)(=O)O)c(O)cc2C)N2CN(C(c3cc(S(=O)(=O)O)c(O)cc3C)c3cc(C)ccc3O)C2=O)c1` (stereo unspecified): the T/C under setting [1] is 101 % of control and the T/C under setting [2] is 93 % of control.
For `Nc1ccn(C2OC(CO)C(OC3OC4COC(c5ccccc5)OC4C(O)C3O)C(O)C2O)c(=O)n1` (stereo unspecified), the T/C is 105 % of control (dose: 22.5 mg/kg/injection, schedule: Q01DX001 (ip), vehicle: carboxymethylcellulose (CMC)); 100 % of control (dose: 45.0 mg/kg/injection, schedule: Q01DX001 (ip), vehicle: carboxymethylcellulose (CMC)); 116 % of control (dose: 90.0 mg/kg/injection, schedule: Q01DX001 (ip), vehicle: carboxymethylcellulose (CMC)); 97 % of control (dose: 180.0 mg/kg/injection, schedule: Q01DX001 (ip), vehicle: carboxymethylcellulose (CMC)).
For `CCCc1nc2ccccc2c(=O)n1/N=C/c1ccccc1O`, the T/C is, setting by setting: under setting [8], 97 % of control; under setting [9], 102 % of control; under setting [10], 103 % of control.
`CCOC(=O)C(C(=O)OCC)N(C(=O)C(Cl)Cl)c1ccccc1`: the T/C is 97 % of control (dose: 100.0 mg/kg/injection, schedule: Q04DX003 (ip), vehicle: other); 96 % of control (dose: 200.0 mg/kg/injection, schedule: Q04DX003 (ip), vehicle: other); 94 % of control (dose: 400.0 mg/kg/injection, schedule: Q04DX003 (ip), vehicle: other).
As for `Cn1c(O)c(N=Nc2ccccc2[N+](=O)[O-])c2ccccc21`, the T/C was 95 % of control (dose: 100.0 mg/kg/injection, schedule: Q01DX001 (ip), vehicle: other); 90 % of control (dose: 200.0 mg/kg/injection, schedule: Q01DX001 (ip), vehicle: other); 95 % of control (dose: 400.0 mg/kg/injection, schedule: Q01DX001 (ip), vehicle: other).
With `O=[N+]([O-])c1cc(Cl)c(Cl)c([N+](=O)[O-])c1O`, the T/C runs as follows: (dose: 25.0 mg/kg/injection, schedule: Q01DX009 (ip), vehicle: acetone) 92 % of control; (dose: 50.0 mg/kg/injection, schedule: Q01DX009 (ip), vehicle: acetone) 97 % of control; (dose: 50.0 mg/kg/injection, schedule: Q04DX003 (ip), vehicle: acetone) 95 % of control; under setting [6], 95 % of control; (dose: 100.0 mg/kg/injection, schedule: Q01DX009 (ip), vehicle: acetone) 95 % of control; (dose: 100.0 mg/kg/injection, schedule: Q04DX003 (ip), vehicle: acetone) 89 % of control. For the same compound, the T/C runs as follows: (dose: 150.0 mg/kg/injection, schedule: Q01DX009 (ip), vehicle: acetone) 100 % of control; under setting [7], 93 % of control.
With `CCCCCCCCCCCCC(=O)OC`, the T/C was 101 % of control under setting [11]; 96 % of control under setting [12]; 98 % of control (dose: 400.0 mg/kg/injection, schedule: Q04DX003 (ip), vehicle: saline with Tween-80).
Take `NC(=O)CSc1cc(Cl)c(Cl)cc1Cl`: the T/C runs as follows: (dose: 50.0 mg/kg/injection, schedule: Q04DX003 (ip), vehicle: saline with Tween-80) 103 % of control; under setting [11], 106 % of control; under setting [12], 90 % of control.
Turning to `CC(C)(C)C1CCCC(NC(=O)N(CCCl)N=O)C1` (stereo unspecified), the T/C (dose: 6.0 mg/kg/injection, schedule: Q01DX001 (ip), vehicle: other) is 111 % of control; the T/C (dose: 12.0 mg/kg/injection, schedule: Q01DX001 (ip), vehicle: other) was 108 % of control; the T/C (dose: 46.0 mg/kg/injection, schedule: Q01DX001 (ip), vehicle: other) was 153 % of control; the T/C (dose: 93.0 mg/kg/injection, schedule: Q01DX001 (ip), vehicle: other) is 187 % of control; the T/C (dose: 187.0 mg/kg/injection, schedule: Q01DX001 (ip), vehicle: other) is 238 % of control; the T/C (dose: 250.0 mg/kg/injection, schedule: Q01DX001 (ip), vehicle: other) was 218 % of control. The T/C runs as follows: (dose: 375.0 mg/kg/injection, schedule: Q01DX001 (ip), vehicle: other) 164 % of control; (dose: 500.0 mg/kg/injection, schedule: Q01DX001 (ip), vehicle: other) 118 % of control.
`Nc1snc2ncccc12`: the T/C was 97 % of control (dose: 50.0 mg/kg/injection, schedule: Q01DX009 (ip), vehicle: Klucel (hydroxypropylcellulose) (HPC)); 92 % of control under setting [8]; 89 % of control under setting [3]; 103 % of control under setting [9]; 87 % of control under setting [4].
